Laboratory results: patent US20050165232A1, “Phenyl substituted imidaopyridines and phenyl substituted benzimidazoles” (priority 2002, published 2005)

Tests used:
adenosine A1 = target: T1, adenosine A1 (Rattus norvegicus, UniProt P25099); assay: Rat adenosine A1 tissue assay (vas deferens); design: species or system Wistar rat
T1 construct: Wistar rat (ca. 275 g) vas deferens were used; from tissue; host or cells: Wistar rat vas deferens
T1 sequence (P25099 1-326): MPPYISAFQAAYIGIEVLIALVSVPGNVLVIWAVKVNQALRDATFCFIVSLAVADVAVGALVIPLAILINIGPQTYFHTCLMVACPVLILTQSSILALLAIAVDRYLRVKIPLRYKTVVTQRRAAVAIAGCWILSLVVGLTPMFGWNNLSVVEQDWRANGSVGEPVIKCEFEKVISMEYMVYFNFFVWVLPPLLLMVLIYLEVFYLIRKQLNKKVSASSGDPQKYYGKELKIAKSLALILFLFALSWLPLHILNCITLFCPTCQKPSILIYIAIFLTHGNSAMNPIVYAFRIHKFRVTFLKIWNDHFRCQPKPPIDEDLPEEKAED
Description: An adenosine A1 tissue assay was performed as follows to determine antagonist versus agonist functional activity. […] The vehicle used was 0.1% DMSO, the incubation buffer used was Krebs at pH 7.4, and the incubation time was 5 min at 32° C. The administration volume was 10 μL, the bath volume was 10 mL, and the time of assessment was 5 min using an isometric (gram changes) quantitation method. The criteria for functional agonism was a ≧50% reduction of neurogenic twitch relative to CHA response. The criteria for functional antagonism was a ≧50% inhibition of CHA-induced relaxation.

adenosine A3 receptor = target: T2, adenosine A3 receptor (Rattus norvegicus, UniProt P28647); assay: Rat adenosine A3 receptor binding assay; details: radioligand 125I AB-MECA, rat recombinant EBNA cells
T2 construct: expressed in transfected cells; host or cells: EBNA cells
T2 sequence (P28647 1-320): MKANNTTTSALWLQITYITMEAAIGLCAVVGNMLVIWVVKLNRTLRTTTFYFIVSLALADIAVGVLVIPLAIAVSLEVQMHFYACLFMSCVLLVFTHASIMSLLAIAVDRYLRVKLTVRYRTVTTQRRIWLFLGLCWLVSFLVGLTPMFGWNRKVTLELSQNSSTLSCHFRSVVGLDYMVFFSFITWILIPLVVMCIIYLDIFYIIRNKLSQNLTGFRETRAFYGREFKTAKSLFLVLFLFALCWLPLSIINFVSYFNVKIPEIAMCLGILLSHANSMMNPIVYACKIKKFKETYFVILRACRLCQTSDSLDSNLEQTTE
Description: Adenosine A3 radioligand binding was performed as follows. Rat recombinant EBNA cells were used with 1 nM ^125I AB-MECA as ligand.

CCCn1c(=O)c2[nH]c(C3CCCC3)nc2n(CCC)c1=O [DPCPX, 8-cyclopentyl-1,3-dipropylxanthine]
antagonist reference response (adenosine A1; 10 nM): 87%

OC[C@H]1O[C@@H](n2cnc3c(NC4CCCCC4)ncnc32)[C@H](O)[C@@H]1O [CHA, N6-(cyclohexyl)adenosine]
agonist reference response (adenosine A1; 0.3 μM): 100%

CNC(=O)[C@H]1O[C@@H](n2cnc3c(NCc4ccc(N)cc4)ncnc32)[C@H](O)[C@@H]1O [AB-MECA]
Kd (adenosine A3 receptor): 1.3 nM
